US20220387544A1, “NOVEL THERAPEUTIC USE” (Artios Pharma Limited, priority 2019, published 2022)

How the values were obtained:
Format in all cases: cell-based
[1] = tested on: parental and SHLD2 KO MDA-MB-436 cells; test: Colony formation assay, MDA-MB-436; settings: SHLD2 KO vs parental MDA-MB-436 cells, colony solubilization protocol
Experimental: (§1) 1 mL of cells were seeded per well in a 24-well plate in triplicate and incubated overnight at 37° C. Cells were treated with a seven-point dose response curve with a one-in-three serial dilution of compound for the timepoints listed in Table 5. For MDA-MB-436 cells media was replenished every five days.
(§2) Cells were fixed with 70% ethanol for 20 minutes at room temperature with shaking. Cells were then stained with 0.04% Crystal Violet (Sigma Aldrich) for 20 minutes at room temperature with shaking. Cells were washed 6 times with water and air-dried overnight.
(§3) Plates were imaged using a Gelcount (Oxford Optronix), and colonies were counted using parameters optimized for each cell line. […] Colonies were solubilized using 10% acetic acid (VWR) for 30 minutes, absorbance at 595 nm was read using the Clariostar plate reader (BMG Labtech), and blank correction was applied. Relative Survival was calculated by normalization of compound treated wells to DMSO treated wells.
(§4) The effect of a DNA polymerase theta (Polθ) inhibitor (Compound A) and the PARP inhibitor olaparib on the survival of parental and SHLD2 deleted (SHLD2 KO) MDA-MB-436 cells was investigated by colony formation assay. Briefly, each population was seeded at low density, incubated with different concentrations of the compound and the relative survival normalized to untreated cells was measured with the colony solubilization protocol.

[2] = tested on: CAL51 breast cancer cells; test: siRNA screen for Compound A sensitivity in CAL51
Source text: (§5) An siRNA library was purchased from Dharmacon. Each well contained a SMART pool of four distinct siRNA species targeting different sequences of the target transcript, as well as individual siRNA targeting components of the Shieldin complex. Each plate was supplemented with negative siCONTROL (12 wells; Dharmacon) and positive control (four wells, siPLK1, Dharmacon). RNAi screening conditions were optimized and raw CellTitre-Glo (Promega) luminescent viability readings were generated as previously described (Lord et al DNA Repair (2008) 7, 2010-2019). Compound A or vehicle (DMSO) was added 24 h after transfection at 5 μM (CAL51) or 10 μM (RPE TP53-/-BRCA1-defective) concentration in media and cells were exposed for 5 days. Statistical analysis of the siRNA screen was performed as described elsewhere (Lord et al DNA Repair (2008) 7, 2010-2019). In brief, luminescence values from CellTitre-Glo assays in Compound A and DMSO exposed cells were log2 transformed and then normalized to plate median (PM) effects. Drug Effect (DE) scores were calculated from PM normalized data using the equation: DE=(log2 PM normalized signal of siRNA in the presence of Compound A)—(log2 PM normalized signal of siRNA in the absence of Compound A). DE values were then Z-score standardized according to screen median and median absolute deviation values.
To discover genes that are synthetic lethal with Polθ inhibitors, an siRNA screen using 1280 siRNAs was performed using CAL51 breast cancer cells. The cells were transfected with siRNA SMARTPools in a 384 well plate arrayed format then, twenty-four hours later, exposed to either DMSO or Compound A. Cells were then continuously cultured in the presence of Compound A or DMSO for a further five days, at which point the viability of cells was measured using CellTitre-Glo reagent (a luminescence assay measuring cellular ATP levels). Luminescence values from each well of the 384 well plate were log2 transformed and then normalized to the median signal on each plate (to account for plate to plate variation). By comparing normalized values for each siRNA SMARTPool in DMSO and Compound A-exposed cells, the effect of each siRNA on Compound A sensitivity was calculated, being expressed as a Drug Effect (DE) Z score.

[3] = tested on: Parental and REV7 KO SUM149 cells; test: Clonogenic survival assay (ICR), SUM149 REV7 KO clones; settings: REV7 KO clones vs parental SUM149, 14 days
Experimental: Clonogenic survival assays were performed as previously described (Edwards et al Nature (2008) 451, 1111-1115; Farmer et al Nature (2005) 434, 917-921). For measurement of sensitivity to Compound A inhibitor, exponentially growing cells were seeded in six-well plates at a concentration of 1000-2000 cells per well. For Compound A, cells were continuously exposed to the drug with media and drug replaced every 72 h. After 14 days, cells were fixed and stained with sulphorhodamine-B (Sigma) and colonies were counted. SFs were calculated and drug sensitivity curves plotted as previously described (Farmer et al Nature (2005) 434, 917-921).
Parental or REV7 KO SUM149 cells were seeded into 6 well plates and incubated overnight. The cells were then treated with a serial dilution of Polθ inhibitor or olaparib for 14 days, fixed, and stained with sulphorhodamine B. The colonies in each well were counted and normalised survival data plotted to generate a dose-response curve.

[4] = tested on: RPE1 TP53-/-BRCA1-/-cells; test: siRNA screen for Compound A sensitivity in BRCA1 defective RPE1; settings: for Drug Effect (DE) Z-score: BRCA1 defective RPE1
Source text: as §5
To discover genes that are synthetic lethal with Polθ inhibitor in cells lacking DSBR through homologous recombination, an siRNA screen using 1418 siRNAs was performed using BRCA1 defective RPE1 TP53-/-BRCA1-/-cells. The screen was performed and analysed as described in FIG. 8 for the CAL51 screen. REV7 and SHLD2 (FAM35A) were two of the top hits (FIG. 8(a)), confirming the link between SHLD component defects and Polθ inhibitor sensitivity.

[5] = tested on: parental and SHLD2 KO HCC1395 cells; test: Colony formation assay, HCC1395; settings: SHLD2 KO vs parental HCC1395 cells, colony solubilisation protocol
Experimental: as §1, §2, §3
as §4, with “[…]” for “(Polθ)”, “HCC1395” for “MDA-MB-436”, “solubilisation” for “solubilization”

[6] = non-targeting siRNA Allstar control

Cc1cccc(N(C)C(=O)[C@@H]2[C@H](O)CCN2c2nc(C)cc(C(F)(F)F)c2C#N)c1 [Compound A, (2S,3R)-1-(3-cyano-6-methyl-4-(trifluoromethyl)pyridin-2-yl)-3-hydroxy-N-methyl-N-(m-tolyl)pyrrolidine-2-carboxamide]
sensitivity by relative survival [1]: significantly more sensitive
Drug Effect (DE) Z-score [2, 6]: 1.0
Drug Effect (DE) Z-score ([2]; non-targeting siRNA siCON1): 0.8
Drug Effect (DE) Z-score ([2]; non-targeting siRNA siCON2): 1.0
Drug Effect (DE) Z-score ([2]; siRNA pool targeting REV7, 5 μM, 5 days, median of triplicate screens): −2.88
sensitivity by reduction in number of colonies [3]: increased sensitivity
sensitivity caused by siRNAs targeting FAM35A or REV7 (DE<−2) ([4]; BRCA1 defective RPE1 cells, 10 μM, 5 days): caused sensitivity
Drug Effect (DE) Z-score [4, 6]: 1.3
Drug Effect (DE) Z-score ([4]; non-targeting siRNA siCON1): −0.8
Drug Effect (DE) Z-score ([4]; non-targeting siRNA siCON2): −0.6
sensitivity by relative survival [5]: significantly more sensitive
